# According to patent US11279733B2, “Peptide antibiotics” (priority 2017, dated 2022):
# Like-named read-outs stand apart in the source and are kept apart here. Positions of bridges follow the written chain, without caps; N, C: chain ends. Non-standard residues stand in square brackets, D forms with d. Residues, ends and D or L forms follow the SMILES beside them. *: point of attachment. dPhe(4-NO2) = N[C@H](Cc1ccc([N+](=O)[O-])cc1)C(=O)O; Decanoyl(3R-OH) = CCCCCCC[C@@H](O)CC(=O)*; dPhe(4-NH2) = Nc1ccc(C[C@@H](N)C(=O)O)cc1; d3Pal = N[C@H](Cc1cccnc1)C(=O)O; Dab = NCC[C@H](N)C(=O)O
# Key:
# [1] = test system: K. pneumoniae ATCC BAA-2146, NDM-1 pos; details: ATCC BAA-2146
# Procedure: (§1) Bacteria were either obtained from American Type Culture Collection (ATCC; Manassas, Va., USA) or independent academic clinical isolate collections, as listed in Table 18 below. Bacteria were cultured in Nutrient broth (NB; Bacto Laboratories, catalogue No. 234000) or Mueller Hinton broth (MHB; Bacto Laboratories, catalogue No. 211443) at 37° C. overnight with shaking (˜180 RPM). A sample of each culture was then diluted 50-fold in fresh MHB and incubated at 37° C. for 2-3 h with shaking (˜180 RPM). Compound stock solutions were prepared as 0.64 mg/mL or 2.56 mg/mL in water. The compounds, at twice the final desired concentration, were serially diluted 2-fold across the wells of 96-well plates (Polystyrene, Corning, catalogue No. 3370). Mid-log phase bacterial cultures (after 2-3 h incubation) were diluted to a final concentration of 1×10^6 colony forming units (CFU)/mL, and 50 μL was added to each well giving a final cell density of 5×10^5 and a compound concentration range of 32 μg/mL to 0.015 μg/mL (128-0.06 μg/mL against P. aeruginosa PA9704).
# [2] = test system: K. pneumoniae GN_106, PmxR; details: GN 106, PmxR
# Procedure: as §1
# A. baumannii ATCC 19606 = details: ATCC 19606
# Procedure: as §1
# E. coli ATCC 25922 = details: ATCC 25922
# Procedure: as §1
# K. pneumoniae ATCC 13883 = details: ATCC 13883
# Procedure: as §1
# [3] = test system: P. aeruginosa GN_105, PmxR; details: GN 105, PmxR
# Procedure: as §1
# A. baumannii GN_093 PmxR = details: GN 093 PmxR
# Procedure: as §1
# [4] = test system: S. aureus ATCC 25923, MSSA; details: ATCC 25923
# Procedure: as §1
# [5] = test system: K. pneumoniae ATCC 700603, MDR; details: ATCC 700603
# Procedure: as §1
# [6] = test system: P. aeruginosa GN_043, PmxR
# Procedure: as §1
# [7] = test system: K. pneumoniae GN_102 PmxR; details: GN 102 PmxR
# Procedure: as §1
# P. aeruginosa ATCC 27853 = details: ATCC 27853
# Procedure: as §1
Compound,"MIC K. pneumoniae ATCC BAA-2146, NDM-1 pos [1] [µg/mL]","MIC K. pneumoniae GN_106, PmxR [2] [µg/mL]",MIC A. baumannii ATCC 19606 (A. baumannii ATCC 19606) [µg/mL],MIC E. coli ATCC 25922 (E. coli ATCC 25922) [µg/mL],MIC K. pneumoniae ATCC 13883 (K. pneumoniae ATCC 13883) [µg/mL],"MIC P. aeruginosa GN_105, PmxR [3] [µg/mL]",MIC A. baumannii GN_093 PmxR (A. baumannii GN_093 PmxR) [µg/mL],"MIC S. aureus ATCC 25923, MSSA [4] [µg/mL]","MIC K. pneumoniae ATCC 700603, MDR [5] [µg/mL]","MIC P. aeruginosa GN_043, PmxR ([6]; P. aeruginosa GN_043, PmxR) [µg/mL]",MIC K. pneumoniae GN_102 PmxR [7] [µg/mL],MIC P. aeruginosa ATCC 27853 (P. aeruginosa ATCC 27853) [µg/mL],"MIC, K. pneumoniae ATCC BAA-2146, NDM-1 pos [1] [µg/mL]","MIC, A. baumannii ATCC 19606 (A. baumannii ATCC 19606) [µg/mL]","MIC, E. coli ATCC 25922 (E. coli ATCC 25922) [µg/mL]","MIC, K. pneumoniae ATCC 13883 (K. pneumoniae ATCC 13883) [µg/mL]","MIC, S. aureus ATCC 25923, MSSA [4] [µg/mL]","MIC, K. pneumoniae ATCC 700603, MDR [5] [µg/mL]","MIC P. aeruginosa GN_043, PmxR ([6]; Table 6, polymyxin-resistant) [µg/mL]","MIC, P. aeruginosa ATCC 27853 (P. aeruginosa ATCC 27853) [µg/mL]"
"CCCCCCC[C@@H](O)CC(=O)N[C@H](Cc1ccc([N+](=O)[O-])cc1)C(=O)N[C@H]1CCNC(=O)[C@H](CC(C)C)NC(=O)[C@H](CCN)NC(=O)[C@H](CCN)NC(=O)[C@H](Cc2ccccc2)NC(=O)[C@@H](CC(C)C)NC(=O)[C@H](CCN)NC1=O [compound 6433, 3(R)OH-nC9CO-D-4NO2Phe-cyc[L-Dab-L-Dab-D-Leu-L-Phe-L-Dab-L-Dab-L-Leu]] ({Decanoyl(3R-OH)}-[dPhe(4-NO2)][Dab][Dab][dL]F[Dab][Dab]L; lactam 2-C)",8,4,8,8,8,8,16,8,8,4,4,8,–,–,–,–,–,–,–,–
"CCCCCCC[C@@H](O)CC(=O)N[C@H](Cc1c[nH]c2ccccc12)C(=O)N[C@H]1CCNC(=O)[C@H](CC(C)C)NC(=O)[C@H](CCN)NC(=O)[C@H](CCN)NC(=O)[C@H](CC(C)C)NC(=O)[C@@H](Cc2ccccc2)NC(=O)[C@H](CCN)NC1=O [compound 6441, 3(R)OH-nC9CO-D-Trp-cyc[L-Dab-L-Dab-D-Phe-L-Leu-L-Dab-L-Dab-L-Leu]] ({Decanoyl(3R-OH)}-[dW][Dab][Dab][dF]L[Dab][Dab]L; lactam 2-C)",–,4,–,–,–,16,32,–,–,–,8,–,8,16,16,16,8,8,8,16
"CCCCCCC[C@@H](O)CC(=O)N[C@H](Cc1ccc(N)cc1)C(=O)N[C@H]1CCNC(=O)[C@H](CC(C)C)NC(=O)[C@H](CCN)NC(=O)[C@H](CCN)NC(=O)[C@H](CC(C)C)NC(=O)[C@@H](Cc2ccccc2)NC(=O)[C@H](CCN)NC1=O [compound 6444, 3(R)OH-nC9CO-D-4NH2Phe-cyc[L-Dab-L-Dab-D-Phe-L-Leu-L-Dab-L-Dab-L-Leu]] ({Decanoyl(3R-OH)}-[dPhe(4-NH2)][Dab][Dab][dF]L[Dab][Dab]L; lactam 2-C)",–,8,–,–,–,16,32,–,–,–,8,–,8,32,8,8,>32,8,32,16
"CCCCCCC[C@@H](O)CC(=O)N[C@H](Cc1cccnc1)C(=O)N[C@H]1CCNC(=O)[C@H](CC(C)C)NC(=O)[C@H](CCN)NC(=O)[C@H](CCN)NC(=O)[C@H](CC(C)C)NC(=O)[C@@H](Cc2ccccc2)NC(=O)[C@H](CCN)NC1=O [compound 6445, 3(R)OH-nC9CO-D-3PyPhe-cyc[L-Dab-L-Dab-D-Phe-L-Leu-L-Dab-L-Dab-L-Leu]] ({Decanoyl(3R-OH)}-[d3Pal][Dab][Dab][dF]L[Dab][Dab]L; lactam 2-C)",–,4,–,–,–,8,>32,–,–,–,8,–,8,32,8,4,>32,8,8,16
"CCCCCCC[C@@H](O)CC(=O)NCC(=O)N[C@H]1CCNC(=O)[C@H](CC(C)C)NC(=O)[C@H](CCN)NC(=O)[C@H](CCN)NC(=O)[C@H](CC(C)C)NC(=O)[C@@H](Cc2ccccc2)NC(=O)[C@H](CCN)NC1=O [compound 6446, 3(R)OH-nC9CO-Gly-cyc[L-Dab-L-Dab-D-Phe-L-Leu-L-Dab-L-Dab-L-Leu]] ({Decanoyl(3R-OH)}-G[Dab][Dab][dF]L[Dab][Dab]L; lactam 2-C)",–,8,–,–,–,4,32,–,–,–,4,–,8,32,8,8,>32,8,4,4
"CCCCCCC[C@@H](O)CC(=O)N[C@H](CC(N)=O)C(=O)N[C@H]1CCNC(=O)[C@H](CC(C)C)NC(=O)[C@H](CCN)NC(=O)[C@H](CCN)NC(=O)[C@H](CC(C)C)NC(=O)[C@@H](Cc2ccccc2)NC(=O)[C@H](CCN)NC1=O [compound 6447, 3(R)OH-nC9CO-D-Asn-cyc[L-Dab-L-Dab-D-Phe-L-Leu-L-Dab-L-Dab-L-Leu]] ({Decanoyl(3R-OH)}-[dN][Dab][Dab][dF]L[Dab][Dab]L; lactam 2-C)",–,4,–,–,–,4,8,–,–,–,4,–,8,16,4,4,32,8,8,8
"CCCCCCC[C@@H](O)CC(=O)N[C@H](Cc1ccc([N+](=O)[O-])cc1)C(=O)N[C@H]1CCNC(=O)[C@H](CC(C)C)NC(=O)[C@H](CCN)NC(=O)[C@H](CCN)NC(=O)[C@H](CC(C)C)NC(=O)[C@@H](Cc2ccccc2)NC(=O)[C@H](CCN)NC1=O [compound 6448, 3(R)OH-nC9CO-D-4NO2Phe-cyc[L-Dab-L-Dab-D-Phe-L-Leu-L-Dab-L-Dab-L-Leu]] ({Decanoyl(3R-OH)}-[dPhe(4-NO2)][Dab][Dab][dF]L[Dab][Dab]L; lactam 2-C)",–,4,–,–,–,8,8,–,–,–,8,–,8,8,4,4,16,8,8,8
